The results in this text go back to patent US8067454B2, “Thio-substituted Anthra [1, 2-d] imidazole- 6, 11-dione derivatives, preparation method and application thereof” (National Defense Medical Center, priority 2010, dated 2011).

In assay [1] the test system is CAKI-1. Put plainly: NCI 60-cell drug screen, Renal Cancer CAKI-1. The note with it: 1.00E−5 Molar. The assay is classed as cell-based, human.
Assay [2] concerns HS 578T. Put plainly: NCI 60-cell drug screen, Breast Cancer HS 578T. It is filed as cell-based, human. Particulars: 1.00E−5 Molar.
Assay [3] has as its system OVCAR-3. Put plainly: NCI 60-cell drug screen, Ovarian Cancer OVCAR-3. The assay is classed as cell-based, human. The note with it: 1.00E−5 Molar.
Assay [4] concerns SF-268. The assay can be described thus: NCI 60-cell drug screen, CNS Cancer SF-268. The note with it: 1.00E−5 Molar. It is filed as cell-based, human.
The test system of assay [5] is HT29. The assay can be described thus: NCI 60-cell drug screen, Colon Cancer HT29. The note with it: 1.00E−5 Molar. The assay is classed as cell-based, human.
The subject of assay [6] is UACC-257. Put plainly: NCI 60-cell drug screen, Melanoma UACC-257. The assay is classed as cell-based, human. Particulars: 1.00E−5 Molar.
The test system of assay [7] is NCI/ADR-RES. The assay can be described thus: NCI 60-cell drug screen, Ovarian Cancer NCI/ADR-RES. It is filed as cell-based, human. Particulars: 1.00E−5 Molar. As to the method: In brief, cellular protein levels were determined after 48 hours of drug exposure by sulforhodamine B colorimetry. Through the use of a time 0 cell control, the cell growth can be determined for each cell line thus allowing calculations of the 50% growth inhibitory concentration (GI50), the total growth inhibition (TGI), and the 50% lethal concentration (LC50). Comparison to plates not exposed to drug permits determination of concentration and times of exposure conferring 50% net growth inhibition (GI50), TGI, and 50% cell kill (LC50).
From the data analysis it follows that approximately 95% of the actives (potent anticancer drugs) from the 60 cell line screen can be identified. By these criteria, 6 compounds (each with its certification number, refer to Table 2) of the invention were reported that having anticancer activity.
The screening system in United State National Cancer Institute (NCI) consists of 60 kinds of different human cancer cells, which can be used to assay the growth-inhibiting ability or cell toxicity of a compound against various cancer and tumor at a certain concentration.
NCI had selected 6 compounds f1-0, f1-1, f3-1, f1-11, f1-2 and f1-15 as test compounds (Table 2). Among these compounds, compound f1-1 was effective against renal cancer cell strain CAKI-1, and could achieve an inhibition effect on the growth of said cancer cell up to −8.01. Compound f1-11 could achieve inhibiting effects against leukemia cell line CCRF-CEM and RPMI-8226, up to −15.39 and −60.17, respectively. Compound f1-2 was effective against central nervous system cancer cell line SNB-75, and could achieve an effect of inhibiting said cancer cell growth up to −9.55. Compound f1-15 was effective against leukemia (blood cancer) cell line K-562, MOLT-4, and RPMI-8226, and could achieve effects of inhibiting said cancer cells growth up to −31.59, −2.90 and −13.69, respectively. Further, compound f1-15 was effective also against renal cancer cell line CAKI-1, and could achieve an effect of inhibiting said cancer cell growth up to −14.89.

Assay [8] concerns MDA-MB-435. The assay can be described thus: NCI 60-cell drug screen, Melanoma MDA-MB-435. The assay is classed as cell-based, human. The note with it: 1.00E−5 Molar.
The subject of assay [9] is DU-145. The assay can be described thus: NCI 60-cell drug screen, Prostate Cancer DU-145. It is filed as cell-based, human. Particulars: 1.00E−5 Molar.
For assay [10], the system named is HOP-92. Put plainly: NCI 60-cell drug screen, Non-Small Cell Lung Cancer HOP-92. The assay is classed as cell-based, human. Particulars: 1.00E−5 Molar.
In assay [11] the test system is SVG p12, GBM8401 and GBM8901. Put plainly: MTT assay, normal cell versus tumor cells (categories 39-3 to 39-7). Particulars: tumor cell survival rate less than 80%; for category 39-3: survival rate higher than 80% for normal cell SVG p12 and inhibits growth of both tumor cells GBM8401 and GBM8901: FIG. 5A. (Formazan colour is commonly taken as a measure of viable cells.)

In assay [12] the test system is SN12C. The assay can be described thus: NCI 60-cell drug screen, Renal Cancer SN12C. It is filed as cell-based, human. Particulars: 1.00E−5 Molar.
Assay [13] relates to telomerase (total cell lysates of lung cancer cell line H1299). The assay can be described thus: Telomeric Repeat Amplification Protocol (TRAP) assay, screen of telomerase inhibitors. It is filed as biochemical, human. The note with it: 10 μM. As to the method: Telomeric Repeat Amplification Protocol (TRAP) Assay:
Telomerase activity was detected by a modified version of the general TRAP protocol. Telomerase products were resolved by 10% polyacrylamide gel electrophoresis and visualized by staining with SYBER Green. As a source of telomerase, the total cell lysates derived from lung cancer cell line H1299 cells were used. Protein concentration of the lysates was assayed using Bio-Rad protein assay kit using BSA standards.
In the TRAP assay, if a compound can stabilize the G-quadruplex structure such that telomerase can not act on telomere, then the effect of inhibiting the telomerase can be achieved. In the FIG. 2A to FIG. 2C, DMSO treatment represents as the positive control group (P); while a negative control group (N) used 5 μl of 0.1 mg/ml RNase A (CLONTECH) in the assay. It could be observed that a number of telomeric fragments were detected in the positive control group (P), while none was detected in the negative control group (N). 10 μM was selected as the concentration used to screen compounds.

In assay [14] the test system is MDA-MB-468. Put plainly: NCI 60-cell drug screen, Breast Cancer MDA-MB-468. It is filed as cell-based, human. The note with it: 1.00E−5 Molar.

In the case of `CCCSc1nc2ccc3c(c2[nH]1)C(=O)c1ccccc1C3=O` [f1-2, 2-(propylthio)-1H-anthra[1,2-d]imidazole-6,11-dione], the “Growth Percent, CAKI-1” value in assay [1] is on record as 45.47%. Moreover, the “Growth Percent, HS 578T” value in [2] amounted to 33.33%. Further, in [3], the “Growth Percent, OVCAR-3” value is given as 62.71%. For the same compound, the “Growth Percent, SF-268” value in assay [4] stood at 47.81%. For the same compound, the “Growth Percent, HT29” value in [5] was determined as 75.10%. Moreover, the “Growth Percent, UACC-257” value in assay [6] came out at 86.31%. For the same compound, the “Growth Percent, NCI/ADR-RES” value in [7] is on record as 50.22%. For the same compound, the “Growth Percent, MDA-MB-435” value in assay [8] came out at 77.38%. Further, the “Growth Percent, DU-145” value in assay [9] is reported as 69.29%. Further, the “Growth Percent, HOP-92” value in assay [10] is reported as 17.25%. In addition, in assay [11], the “category 39-3: survival rate higher than 80% for normal cell SVG p12 and inhibits growth of both tumor cells GBM8401 and GBM8901” value is “in this category”. Also, the “Growth Percent, SN12C” value in [12] is listed as 80.41%.

`O=C1c2ccccc2C(=O)c2c1ccc1nc3n(c21)CCS3` [f3-1, 2-(2-N-ethylthio)-1H-anthra[1,2-d]imidazole-6,11-dione]: the “Growth Percent, SF-268” value in assay [4] came to 56.15%. Also, in assay [6], the “Growth Percent, UACC-257” value amounted to 80.59%. The “inhibition effect against telomerase” value in assay [13] is listed as “exhibited inhibition effect against telomerase”. In addition, in [14], the “Growth Percent, MDA-MB-468” value came to 69.68%. The “Growth Percent, NCI/ADR-RES” value in assay [7] is on record as 84.08%. In assay [8], the “Growth Percent, MDA-MB-435” value amounted to 83.11%. The “Growth Percent, DU-145” value in [9] amounted to 68.84%. The “Growth Percent, HOP-92” value in assay [10] is listed as 88.67%. In assay [12], the “Growth Percent, SN12C” value came to 74.93%.

Regarding `CN(C)CCCSc1nc2ccc3c(c2[nH]1)C(=O)c1ccccc1C3=O` [f1-15, 2-(3-(dimethylamino)propylthio)-1H-anthra[1,2-d]imidazole-6,11-dione], in assay [1], the “Growth Percent, CAKI-1” value is on record as −14.89%. The “Growth Percent, HS 578T” value in [2] amounted to 69.32%. Besides, the “Growth Percent, OVCAR-3” value in [3] is reported as 59.33%. The “Growth Percent, SF-268” value in assay [4] is 53.13%. Besides, the “Growth Percent, HT29” value in [5] was 17.84%. In addition, the “Growth Percent, UACC-257” value in assay [6] is given as 114.50%. The “Growth Percent, NCI/ADR-RES” value in [7] was determined as 54.32%. In [8], the “Growth Percent, MDA-MB-435” value stood at 72.18%. Also, in assay [9], the “Growth Percent, DU-145” value stood at 36.35%. Moreover, in [10], the “Growth Percent, HOP-92” value turned out to be 15.99%. Moreover, the “Growth Percent, SN12C” value in [12] came out at 37.66%.

On to `O=C1c2ccccc2C(=O)c2c1ccc1nc(S)[nH]c21` [f1-0, 2-Mercapto-1(3)H-anthra[1,2-d]imidazole-6,11-dione], for which, in [1], the “Growth Percent, CAKI-1” value is recorded as 91.23%. In assay [2], the “Growth Percent, HS 578T” value is 103.53%. Further, the “Growth Percent, OVCAR-3” value in assay [3] worked out at 86.94%. In assay [4], the “Growth Percent, SF-268” value came to 90.30%. Also, in assay [5], the “Growth Percent, HT29” value is 103.79%. In addition, the “Growth Percent, UACC-257” value in assay [6] came to 105.26%. Also, the “Growth Percent, MDA-MB-468” value in assay [14] is 87.69%. Moreover, the “Growth Percent, NCI/ADR-RES” value in [7] worked out at 109.60%. In [8], the “Growth Percent, MDA-MB-435” value came to 114.02%. In assay [9], the “Growth Percent, DU-145” value was 99.28%. Further, the “Growth Percent, HOP-92” value in [10] came out at 65.48%. In assay [12], the “Growth Percent, SN12C” value was 87.98%.

As to `CCSc1nc2ccc3c(c2[nH]1)C(=O)c1ccccc1C3=O` [f1-1, 2-(Ethylthio)-1H-anthra[1,2-d]imidazole-6,11-dione], the “Growth Percent, CAKI-1” value in assay [1] is reported as −8.01%. For the same compound, in assay [2], the “Growth Percent, HS 578T” value came to 85.44%. The “Growth Percent, OVCAR-3” value in [3] is listed as 69.27%. For the same compound, the “Growth Percent, SF-268” value in assay [4] was found to be 75.67%. Also, the “Growth Percent, HT29” value in [5] stood at 75.18%. Moreover, in assay [6], the “Growth Percent, UACC-257” value is reported as 111.80%. Further, in assay [14], the “Growth Percent, MDA-MB-468” value stood at 35.36%. In addition, the “Growth Percent, NCI/ADR-RES” value in [7] stood at 85.72%. The “Growth Percent, MDA-MB-435” value in assay [8] amounted to 68.42%. For the same compound, the “Growth Percent, DU-145” value in assay [9] amounted to 64.51%. Moreover, the “Growth Percent, HOP-92” value in assay [10] is given as 75.35%. The “category 39-3: survival rate higher than 80% for normal cell SVG p12 and inhibits growth of both tumor cells GBM8401 and GBM8901” value in assay [11] is recorded as “in this category”. In addition, the “Growth Percent, SN12C” value in assay [12] is listed as 67.91%.

Regarding `O=C1c2ccccc2C(=O)c2c1ccc1nc(SCCN3CCCC3)[nH]c21` [f1-11], in [4], the “Growth Percent, SF-268” value is 42.04%. In addition, the “Growth Percent, UACC-257” value in assay [6] was 92.77%. The “Growth Percent, MDA-MB-468” value in assay [14] worked out at 67.90%. Besides, in assay [7], the “Growth Percent, NCI/ADR-RES” value was found to be 53.74%. Moreover, the “Growth Percent, MDA-MB-435” value in [8] was 66.47%. The “Growth Percent, DU-145” value in assay [9] is on record as 17.91%. Moreover, in assay [10], the “Growth Percent, HOP-92” value is reported as 35.17%. In addition, the “category 39-5: survival rate higher than 80% for normal cell SVG p12 and only inhibits growth of tumor cell GBM8901” value in [11] (FIG. 5C) is “in this category”. Moreover, the “Growth Percent, SN12C” value in [12] is given as 52.94%.
